Laboratory results: patent US12116421B2, “Peptide-based Dopa containing adhesive gels” (KING ABDULLAH UNIVERSITY OF SCIENCE AND TECHNOLOGY, priority 2020, dated 2024)
Where a SMILES comes first, the peptide text is derived from it. [ ]: non-standard residue; d: D form. Dopa = N[C@@H](Cc1ccc(O)c(O)c1)C(=O)O; Cha = N[C@@H](CC1CCCCC1)C(=O)O

Experiments:
[1] = Peptide gelation study by vial inversion test (CGC and gelation time); format: physicochemical; conditions: 1×PBS; for gelation time: vial inversion test
Procedure: The critical gelation concentration (CGC) and gelation time of hydrogels formed by the catechol peptides in 1×PBS determined by vial inversion test are summarized below:
The peptide powder was dissolved in 0.90 mL of MilliQ® water and vortexed until fully dissolved. Then, 0.10 mL of 10×PBS buffer were added to the peptide solution to reach a final concentration of 1×PBS. Gelation of the solution in the vial was observed by vial inversion method. The time and critical gelation concentration (CGC) at which each peptide formed a hydrogel were recorded.

Acropora fragments = experiment: Coral fragments glued to a tile in sea water, selection of best glue; format: in vivo, Acropora spp.; conditions: for survival rate of the coral fragments: after 3 days, tile in aquarium with running seawater; for time to detachment of glued fragments under water: DoIIZK: one of the fragments, IIZDoK: all fragments; for Survival after 3 days in the aquarium / Survival after attachment: number of Acropora fragments of n = 3
Procedure: In one embodiment, coral fragments were attached to a tile using DoIIZK, IIZDoK, IIZKDo as a glue. The tile, to which the coral fragments were attached, has a size 10×10 cm and was placed into a shallow aquarium supplied with running seawater.
In one embodiment, the survival rate of the coral fragments fixed with DoIIZK was 67%, whereas the survival rate glued with IIZDoK and IIZKDo were respectively 0% and 100%, after 3 days.
The different glues were prepared at the same concentration of 40 mg/mL for DoIIZK, IIZDoK and IIZKDo. Then, the coral fragments were adhered to the surface of the tiles by applying gentle pressure as following: triplicates in the first line with DoIIZK as a glue, second line with IIZDoK and last line with IIZKDo. The experiment setup is illustrated in FIG. 40. The tiles were afterwards placed underwater in a tank containing filtered sea water. One of the fragments that was glued with DoIIZK detached less than 15 minutes after we placed the tile under water and all of the fragments that were glued with IIZDoK detached around 30 minutes after they have been placed under water.

[2] = test system: Acropora hemprichii fragments; experiment: Adhesion of bigger coral fragments with IIZKDo glue to tile and 3D printed coral; format: in vivo
Source text: The donor corals Acropora spp. shown in FIG. 36 were collected from the Red Sea.
In one embodiment, IIZKDo was used for the adhesion of bigger and heavier coral fragments to the 3D printed coral, which would be the situation in coral reef restoration. In gluing larger coral fragments, two different type of Acropora hemprichii were glued: some big fragments with an irregular base, and some smaller pieces with smooth base.
In one embodiment, the big fragments with irregular base and the smaller pieces with smooth base were attached to a tile. The cut small pieces of coral were attached to a special sheet for macrofragmentation so that these fragments further grew on the surface of the spreadsheet, in order to obtain fragments with a base smooth enough to stick them on the tile. After 15 days, the big fragments were still fully attached to the tile, whereas the small, flat fragments were all detached.
After verifying the best performing glue among the three DoIIZK, IIZDoK, IIZKDo, IIZKDo was selected to glue some coral fragments onto 3D printed PLA corals used for coral reef restoration project. Using a diagonal plier, the tip of each branch-like part (ca. 1.5-2.5 cm in length) of a donor Acropora hemprichii coral was gently cut to minimize damage to the coral itself. FIG. 36 illustrates the parts being cut from the donor coral. […] The initial donor coral was moved from a large shallow aquarium (230×148×140 cm) supplied with running seawater to a relatively shallow aquarium also outfitted with running seawater. While preparing the glue, the cut fragments were kept in a small shallow aquarium (72×54×29 cm) filled with sea water to not harm them until use. In the meantime, the glue was prepared by mixing IIZKDo 40 mg/mL in water and the mixture was poured on a glass slide and allowed to rest for about 5 minutes to equilibrate, as shown in FIG. 42. The cut coral fragment was removed from the aquarium, and cleaned, while moisture was allowed to absorb from the cut section with sterilized filter paper. The ceramic tile was cleaned twice with water, and then sea water to mimic the adhesion of the glue to a wet, salty surface.
A few drops of IIZKDo was applied at the surface of the cut section of the coral fragment, and the fragment was immediately glued at the surface of the tile, as shown in FIG. 43. As a control, some smaller fragments with smooth surface Acropora hemprichii, were glued using the same peptide-based glue.
The tile with attached coral fragments was placed in the original shallow aquarium (230×148×140 cm) to keep the coral in its natural environment as shown in FIG. 44 and checked after 3 days. Only the big fragments were still sticking on the tile. Therefore, only big fragments were then glued to the 3D printed poly-lactic acid (PLA) printed coral structure primed with MakerBot, which is a 3D printer based on fused deposition modeling method and grew in harsher conditions, such as in the presence of algae etc.

[3] = glue 40 mg/mL, tile in filtered sea water
[4] = Big fragments with irregular base, n = 5, tile
[5] = Flat fragments with smooth base, n = 3, tile

Structure (SMILES)	critical gelation concentration (CGC) [1]	gelation time ([1]; peptide 1 mg/mL)	gelation time ([1]; peptide 2 mg/mL)	gelation time ([1]; peptide 2 mg/mL, listed as DopaIIZK)	gelation time ([1]; peptide 3 mg/mL)	gelation time ([1]; peptide 4 mg/mL)	gelation time ([1]; peptide 5 mg/mL)	survival rate of the coral fragments (Acropora fragments)	time to detachment of glued fragments under water (Acropora fragments; [3])	Survival after 3 days in the aquarium (Acropora fragments)	Survival after attachment (Acropora fragments)	gelation time ([1]; peptide 4 mg/mL, listed as IIZDopaK)	gelation time ([1]; peptide 3 mg/mL, listed as IIZKDopa)	Survival after 15 days in the aquarium [2, 4]	Survival after attachment [2, 4]	Survival after 15 days in the aquarium [2, 5]	Survival after attachment [2, 5]	time coral fragments kept glued to a 3D printed substrate ([2]; seawater)	fragments sticking to the tile after 17 days (Acropora fragments; glue 40 mg/mL, tile in filtered sea water, triplicates)
CC[C@H](C)[C@H](NC(=O)[C@H](Cc1ccc(O)c(O)c1)NC(C)=O)C(=O)N[C@H](C(=O)N[C@@H](CC1CCCCC1)C(=O)N[C@@H](CCCCN)C(N)=O)[C@@H](C)CC [DoIIZK, Ac-Dopa-Ile-Ile-Cha-Lys-NH2] (Ac-[Dopa]II[Cha]K-NH2)	2 mg/mL	Not gelating	45 min	>45 min	>30 min	>20 min	>10 min	67%	less than 15 minutes	2	3								
CC[C@H](C)[C@H](NC(C)=O)C(=O)N[C@H](C(=O)N[C@@H](CC1CCCCC1)C(=O)N[C@@H](Cc1ccc(O)c(O)c1)C(=O)N[C@@H](CCCCN)C(N)=O)[C@@H](C)CC [IIZDoK, Ac-Ile-Ile-Cha-Dopa-Lys-NH2] (Ac-II[Cha][Dopa]K-NH2)	4 mg/mL	Not gelating	Not gelating		Not gelating	80 min	>75 min	0%	around 30 minutes	0	3	>80 min							
CC[C@H](C)[C@H](NC(C)=O)C(=O)N[C@H](C(=O)N[C@@H](CC1CCCCC1)C(=O)N[C@@H](CCCCN)C(=O)N[C@@H](Cc1ccc(O)c(O)c1)C(N)=O)[C@@H](C)CC [IIZKDo, Ac-Ile-Ile-Cha-Lys-Dopa-NH2] (Ac-II[Cha]K[Dopa]-NH2)	3 mg/mL	Not gelating	Not gelating		30 min	>21 min	>16 min	100%		3	3		>30 min	5	5	0	3	several months	still all sticking to the tile after 17 days
